{"source": "patent US20080167444A1", "about": "“Abc Transporter Inhibitor” (priority 2004, published 2008)", "key": {"PDR5 protein [1]": {"tested_on": "PDR5 protein", "experiment": "Western blotting of PDR5 protein (quantity and stability)", "type": "cell-based, yeast", "conditions": "after addition of the drug", "excerpt": "The effects of enniatin B, B1, D, and enniatin mixture on the quantity of PDR5 protein as the translation product and on the stability of PDR5 protein were investigated by Western blotting of PDR5 protein. After addition of enniatin B, B1, D, or enniatin mixture, quantitative change of PDR5 protein was not observed, which confirmed that apparent inhibition of the function of PDR5 gene product is ascribable neither to inhibition of translation of PDR5 protein nor to reduced stability of the protein through acceleration of decomposition of PDR5 protein."}, "[2]": {"tested_on": "host yeast (Saccharomyces cerevisiae W303 (MAT a Δsyr/erg3::HIS3 Δpdr5::LEU2 Δsnq2::HIS3))", "experiment": "Growth inhibition of the host yeast (PDR5 and SNQ2 deleted)", "type": "cell-based", "conditions": "test drug elevated to 5 μg/mL; static culture 30° C. 24 hours", "protocol": "(§1) Yeast with overexpressed PDR5 by transformation of the host yeast (Saccharomyces cerevisiae W303 (MAT a Δsyr/erg3::HIS3 Δpdr5::LEU2 Δsnq2::HIS3)) with the PDR5 expression vector and the host yeast were inoculated separately in 4 mL each of the minimum medium followed by shaking culture at 30° C. for 12 hours. To a 96-well microtiter plate to which cycloheximide or cerulenin of various concentrations had been added, was added purified enniatin B, B1, D, or enniatin mixture of various concentrations, followed by inoculation of the above-mentioned yeast. The volume per well was adjusted to 200 μL by addition of the minimum medium. After static culture at 30° C. for 24 hours, the extent of growth of yeast was determined for evaluation of the growth-inhibiting activity of the test drug against the yeast with overexpressed PDR5 and against the host yeast. The extent of growth of yeast was determined by measurement of absorbance at 660 nm using a microtiter plate reader (MTP-500; CORONA). The growth-inhibiting activity against the yeast with overexpressed PDR5 and against the host yeast was also determined for immunosuppressor FK-506, the positive control, which is known to inhibit yeast PDR5 protein and human MDR1 protein (P-glycoprotein)."}, "PDR5 gene": {"tested_on": "PDR5 gene", "experiment": "PDR5 transcription activity, β-galactosidase (lacZ) reporter downstream of Pdr5 promoter", "type": "cell-based, yeast", "conditions": "drug at final concentration 25 μg/mL, 8 hours; compared with no addition", "protocol": "The effect of enniatin on expression of PDR5 gene was analyzed based on measurement of the PDR5 transcription activity using β-galactosidase gene as the reporter gene. Yeast, where had been introduced a recombinant plasmid obtained by fusion of β-galactosidase gene (lacZ) in the downstream of Pdr5 promoter, was subjected to shaking culture at 30° C. for 8 hours in 4 mL of YEPD medium, and a quantity of yeast corresponding to 1.0×10^6 cells was inoculated in 4 mL of the medium. At the same time, enniatin B, B1, D, enniatin mixture, or FK-506 was added to the final concentration of 25 μg/mL. After shaking culture at 30° C. for 8 hours, 1.0×10^7 yeast cells were collected. The cells were then suspended in 1 mL of Z buffer solution (60 mM disodium hydrogen phosphate, 40 mM sodium dihydrogen phosphate, 10 mM potassium chloride, 1 mM magnesium sulfate, 50 mM […], pH 7.0). The cell suspension was treated with 45 μL of chloroform and 30 μL of 0.1% sodium dodecyl sulfate at 30° C. for 5 minutes. The suspension was then treated with 200 μL of o-NPG (o-nitrophenyl-β-D-galactopyranoside) of 4 mg/mL at 30° C. for 10 minutes. After reaction was stopped by addition of 500 μL of 1 M sodium carbonate, absorbance at 420 nm was measured to determine the activity of β-galactosidase. The activity of β-galactosidase was calculated using a unit=1000×A420/10 (reaction time). […] Thus it could be confirmed that inhibition of PDR5 function by enniatin B, B1, D, enniatin mixture, or FK-506 is not ascribable to the inhibition of transcription of PDR5 gene."}, "PDR5 protein [3]": {"target": "T1, PDR5 protein (Saccharomyces cerevisiae, UniProt P33302)", "T1 construct": "expressed in transfected cells; host or cells: Saccharomyces cerevisiae W303 (MAT a Δsyr/erg3::HIS3 Δpdr5::LEU2 Δsnq2::HIS3)", "T1 sequence (P33302 whole entry)": "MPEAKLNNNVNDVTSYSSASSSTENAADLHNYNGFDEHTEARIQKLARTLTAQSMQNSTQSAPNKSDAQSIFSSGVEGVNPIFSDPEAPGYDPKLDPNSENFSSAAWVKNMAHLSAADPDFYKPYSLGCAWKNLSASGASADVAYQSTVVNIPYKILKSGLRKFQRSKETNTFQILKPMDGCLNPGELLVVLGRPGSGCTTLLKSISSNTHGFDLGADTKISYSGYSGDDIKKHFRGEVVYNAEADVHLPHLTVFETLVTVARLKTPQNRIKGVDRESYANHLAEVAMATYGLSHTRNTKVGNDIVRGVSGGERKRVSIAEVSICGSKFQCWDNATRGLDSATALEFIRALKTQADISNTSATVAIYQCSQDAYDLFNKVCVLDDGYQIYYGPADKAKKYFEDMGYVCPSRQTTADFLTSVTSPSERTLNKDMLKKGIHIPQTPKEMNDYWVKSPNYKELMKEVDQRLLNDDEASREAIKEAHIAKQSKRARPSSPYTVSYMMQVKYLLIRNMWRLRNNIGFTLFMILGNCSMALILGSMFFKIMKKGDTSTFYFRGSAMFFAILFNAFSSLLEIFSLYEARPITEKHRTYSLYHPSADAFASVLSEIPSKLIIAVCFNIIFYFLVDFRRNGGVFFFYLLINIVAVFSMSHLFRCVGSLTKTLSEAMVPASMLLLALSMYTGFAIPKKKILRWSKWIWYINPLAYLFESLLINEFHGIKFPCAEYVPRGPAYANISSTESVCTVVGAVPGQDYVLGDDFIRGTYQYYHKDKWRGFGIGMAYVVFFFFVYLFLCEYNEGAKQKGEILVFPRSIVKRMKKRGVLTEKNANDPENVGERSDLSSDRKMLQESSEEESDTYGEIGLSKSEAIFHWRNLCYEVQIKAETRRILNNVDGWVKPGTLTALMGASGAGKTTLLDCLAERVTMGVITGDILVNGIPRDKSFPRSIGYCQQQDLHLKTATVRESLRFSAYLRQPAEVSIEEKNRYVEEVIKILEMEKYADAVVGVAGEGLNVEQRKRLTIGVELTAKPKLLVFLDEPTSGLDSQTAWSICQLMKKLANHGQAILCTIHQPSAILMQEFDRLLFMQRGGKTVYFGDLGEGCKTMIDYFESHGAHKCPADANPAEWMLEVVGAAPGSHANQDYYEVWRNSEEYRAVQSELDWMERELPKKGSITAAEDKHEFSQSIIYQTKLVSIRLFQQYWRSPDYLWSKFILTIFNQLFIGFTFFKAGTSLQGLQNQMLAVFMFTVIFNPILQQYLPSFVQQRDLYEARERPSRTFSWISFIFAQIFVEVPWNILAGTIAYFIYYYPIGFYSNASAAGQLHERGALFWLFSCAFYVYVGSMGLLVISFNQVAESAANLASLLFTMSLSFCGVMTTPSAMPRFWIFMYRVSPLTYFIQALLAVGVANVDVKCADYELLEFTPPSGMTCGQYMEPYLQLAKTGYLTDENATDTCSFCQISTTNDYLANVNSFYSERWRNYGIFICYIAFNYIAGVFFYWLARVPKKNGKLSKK", "experiment": "Growth inhibition of yeast with overexpressed PDR5 in the presence of cycloheximide or cerulenin (absorbance at 660 nm)", "type": "cell-based", "conditions": "for inhibition of growth of the yeast with overexpressed PDR5: test drug at 5 μg/mL, cycloheximide or cerulenin present, static culture 30° C. 24 hours; for IC50: IC50 (concentration for 50% growth-inhibition), IC50 of cycloheximide or cerulenin, without or with addition of 5 μg/mL enniatin mixture or FK-506", "protocol": "as §1"}, "PDR5-deleted host yeast": {"tested_on": "PDR5-deleted host yeast", "experiment": "Rhodamine 6G accumulation in PDR5-deleted host yeast (fluorescence microscope)", "type": "cell-based, Saccharomyces cerevisiae", "conditions": "drug at final concentration 25 μg/mL; compared with no addition of the drug", "protocol": "(§2) The above-mentioned strain with overexpressed PDR5 and the above-mentioned host yeast were separately subjected to shaking culture at 30° C. for 12 hours in 4 mL of the minimum medium. Then a quantity of yeast corresponding to 1.0×10^6 cells was inoculated to 4 mL of the minimum medium. Enniatin B, B1, D, enniatin mixture, or FK-506 was added to the final concentration of 25 μg/mL, and after shaking culture at 30° C. for 2 hours, 15 μL of rhodamine 6G (1 mg/mL) was added followed by culture under the same conditions for 30 minutes. After culture, the culture was washed twice with 2% glucose solution in PBS (phosphate-buffered saline) and the fluorescence in yeast cells was observed under a fluorescence microscope (Nicon ECLIPSE E400, using G-2A filter)."}, "PDR5 protein [4]": {"target": "T1, PDR5 protein", "experiment": "Rhodamine 6G accumulation in yeast with overexpressed PDR5 (fluorescence microscope)", "type": "cell-based", "conditions": "drug at final concentration 25 μg/mL, 2 hours, then rhodamine 6G 30 minutes", "protocol": "as §2"}}, "note": "Where “and” joins values, the source holds several entries; their conditions need not be identical. Equal entries are not always repeated."}
{"smiles": "CC(C)CC1C(=O)OC(C(C)C)C(=O)N(C)C(C(C)C)C(=O)OC(C(C)C)C(=O)N(C)C(C(C)C)C(=O)OC(C(C)C)C(=O)N1C", "note": "(centres unmarked) [enniatin D, Enniatin D]", "values": [{"measurement": "quantitative change of PDR5 protein (Western blotting)", "setting": "PDR5 protein [1]", "value": "not observed"}, {"measurement": "inhibition of growth of the host yeast (cytotoxicity)", "setting": "[2]", "value": "not observed"}, {"measurement": "activity of β-galactosidase (PDR5 transcription activity)", "setting": "PDR5 gene", "value": "not different from that without addition of the drug"}, {"measurement": "inhibition of growth of the yeast with overexpressed PDR5", "setting": "PDR5 protein [3]", "value": "completely"}, {"measurement": "rhodamine 6G accumulation in PDR5-deleted host yeast", "setting": "PDR5-deleted host yeast", "value": "rhodamine 6G was accumulated in yeast cells"}, {"measurement": "rhodamine 6G accumulation in yeast with overexpressed PDR5", "setting": "PDR5 protein [4]", "value": "accumulated rhodamine 6G"}]}
{"smiles": "CC(C)[C@H]1C(=O)O[C@H](C(C)C)C(=O)N(C)[C@@H](C(C)C)C(=O)O[C@H](C(C)C)C(=O)N(C)[C@@H](C(C)C)C(=O)O[C@H](C(C)C)C(=O)N1C", "note": "[enniatin B, Enniatin B]", "values": [{"measurement": "quantitative change of PDR5 protein (Western blotting)", "setting": "PDR5 protein [1]", "value": "not observed"}, {"measurement": "inhibition of growth of the host yeast (cytotoxicity)", "setting": "[2]", "value": "not observed"}, {"measurement": "activity of β-galactosidase (PDR5 transcription activity)", "setting": "PDR5 gene", "value": "not different from that without addition of the drug"}, {"measurement": "inhibition of growth of the yeast with overexpressed PDR5", "setting": "PDR5 protein [3]", "value": "completely"}, {"measurement": "rhodamine 6G accumulation in PDR5-deleted host yeast", "setting": "PDR5-deleted host yeast", "value": "rhodamine 6G was accumulated in yeast cells"}, {"measurement": "rhodamine 6G accumulation in yeast with overexpressed PDR5", "setting": "PDR5 protein [4]", "value": "accumulated rhodamine 6G"}]}
{"smiles": "C[C@@H]1C[C@@H]([C@H](O)CC2CC(=O)NC(=O)C2)C(=O)[C@@H](C)C1", "note": "[Cycloheximide]", "values": [{"measurement": "IC50", "setting": "PDR5 protein [3]", "value": "462 nM and 434 nM"}]}
{"smiles": "CC[C@H](C)[C@H]1C(=O)O[C@H](C(C)C)C(=O)N(C)[C@@H](C(C)C)C(=O)O[C@H](C(C)C)C(=O)N(C)[C@@H](C(C)C)C(=O)O[C@H](C(C)C)C(=O)N1C", "note": "[enniatin B1, Enniatin B1]", "values": [{"measurement": "quantitative change of PDR5 protein (Western blotting)", "setting": "PDR5 protein [1]", "value": "not observed"}, {"measurement": "inhibition of growth of the host yeast (cytotoxicity)", "setting": "[2]", "value": "not observed"}, {"measurement": "activity of β-galactosidase (PDR5 transcription activity)", "setting": "PDR5 gene", "value": "not different from that without addition of the drug"}, {"measurement": "inhibition of growth of the yeast with overexpressed PDR5", "setting": "PDR5 protein [3]", "value": "completely"}, {"measurement": "rhodamine 6G accumulation in PDR5-deleted host yeast", "setting": "PDR5-deleted host yeast", "value": "rhodamine 6G was accumulated in yeast cells"}, {"measurement": "rhodamine 6G accumulation in yeast with overexpressed PDR5", "setting": "PDR5 protein [4]", "value": "accumulated rhodamine 6G"}]}
{"smiles": "C/C=C/C/C=C/CCC(=O)[C@H]1O[C@H]1C(N)=O", "note": "[Cerulenin]", "values": [{"measurement": "IC50", "setting": "PDR5 protein [3]", "value": "1500 nM and 1570 nM"}]}
